Measurements: patent US20100016232A1, “Treatment Of Inflammatory Diseases With Mammal Beta Defensins” (Novozymes A/S, priority 2008, published 2010)
Where no end group is shown, it is not given here.

Columns and labels:
[1] = test system: IL-1β and IL-8 and IL-6, dendritic cells; assay: Cytokines from dendritic cells stimulated with a cytokine cocktail; assay type: cell-based, human; conditions: cytokine cocktail together with hBD2 vs cocktail alone, results not shown
Text: Obviously no effect on TNF could be analyzed, due to stimulation with TNF-α (results not shown).

[2] = test system: IL-10 secretion from PBMC; assay: IL-10 secretion from PBMC, ELISA; assay type: cell-based, human
Protocol: (§1) Peripheral blood was drawn from healthy volunteers (with approval from the relevant ethical committee in Denmark). Heparinized blood was diluted 1/1 v/v with RPMI and were subjected to Ficoll density centrifugation within 2 h of drawing. Plasma was collected from the top from individual donors and was kept on ice until it was used at 2% in the culture medium (autologous culture medium). Isolated PBMC were resuspended in autologous culture medium and seeded in 96-well culture plates with 255.000 cells per well in a total of 200 μl. […] The concentrations used for stimulation were optimized on 3 different donors in initial experiments, for LPS two different concentrations were used to be sure to be on a cytokine level that is possible to modulate. In some experiments PBMC were treated with Dexamethason and Indomethacin alone and together with LPS or LTA as a control on downregulation of inflammatory cytokines. The supernatants were collected after incubation at 37° C. for 24 hours, and stored at −80° C. until cytokine measurement. Viability was measured by Alamar Blue (Biosource, DALL 1100) in all experiments and in some cases also by MTS (Promega) according to manufacturer's instruction and was in some experiments also judged by counting of the cells by a Nucleocounter.
(§2) Cytokine production in supernatants was measured by flow cytometry with a human inflammation cytometric bead array (CBA) according to manufacturer's instructions (BD) on a FACSarray flow cytometer. The following cytokines were measured: IL-8, IL-1β, IL-10, TNF, IL-12 p70, IL-6. In some experiments, cytokines were measured by ELISA kits from R&D systems (IL-10, TNF-α, IL-1β) according to the manufacturer' instruction.
In Tables 6, 7 and 8, supernatants from another donor were analysed for cytokines by ELISA instead of by a cytometric bead array by flowcytometry and here the same were observed, although the sensitivity of the assay is lower and the detection limit much higher and therefore the effects were not as significant.

[3] = test system: TNF production from human peripheral blood mononuclear cells (PBMC); assay: TNF production from human PBMC, Cytometric Bead Array; assay type: cell-based
Protocol: as §1, §2

[4] = test system: TNF production in supernatant from a human monocyte cell line (MUTZ-3); assay: TNF production, human monocyte cell line MUTZ-3; assay type: cell-based
Protocol: The human myeloid leukaemia-derived cell line MUTZ-3 (DSMZ, Braunschweig, Germany) was maintained in a-MEM (Sigma M4526), supplemented with 20% [volume/volume (v/v)] fetal bovine serum (Sigma F6178) and 40 ng/ml rhGM-CSF (R&D Systems 215-GM-050).
as §2

[5] = LPS 0.6 ng/ml, test compound 1 μg/ml, Table 16
[6] = LPS 0.6 ng/ml, test compound 10 μg/ml, Table 16
[7] = LPS 0.6 ng/ml, test compound 40 μg/ml, Table 16
[8] = LPS 20 ng/ml, test compound 1 μg/ml, Table 16
[9] = LPS 20 ng/ml, test compound 10 μg/ml, Table 16
[10] = LPS 20 ng/ml, test compound 40 μg/ml, Table 16

hBD2: human beta defensin 2, SEQ ID NO:2; produced recombinantly in E. coli (Example 1); hBD2 of Tables 16-18 was prepared by chemical synthesis (GIGDPVTCLKSGAICHPVFCPRRYKQIGTCGLPGTKCCKKP; ends and bridges not checked; cysteine pairing not given here; listed as Homo sapiens)
IL-1β and IL-8 and IL-6 [1]: downregulating effect
IL-10 ([2]; LPS 0.6 ng/ml, hBD2 10 μg/ml): 0.04 ng/mL
IL-10 ([2]; LPS 0.6 ng/ml, hBD2 100 μg/ml): 0.14 ng/mL
IL-10 ([2]; LPS 20 ng/ml, hBD2 10 μg/ml): 0.34 ng/mL
IL-10 ([2]; LPS 20 ng/ml, hBD2 100 μg/ml): 0.46 ng/mL
TNF ([3]; LPS 0.6 ng/ml, hBD2 1 μg/ml, Table 1): 944.8 pg/mL
TNF ([3]; LPS 0.6 ng/ml, hBD2 1 μg/ml, Table 11): 170 pg/mL
TNF ([3]; LPS 0.6 ng/ml, hBD2 10 μg/ml, Table 1): 1076.4 pg/mL
TNF ([3]; LPS 0.6 ng/ml, hBD2 10 μg/ml, Table 11): 200 pg/mL
TNF ([3]; LPS 0.6 ng/ml, hBD2 100 μg/ml, Table 1): 634.2 pg/mL
TNF ([3]; LPS 0.6 ng/ml, hBD2 100 μg/ml, Table 11): 0 pg/mL
TNF ([3]; LPS 0.6 ng/ml, hBD2 1000 μg/ml, Table 11): 3 pg/mL
TNF [3, 5]: 242 pg/mL
TNF % of control [3, 5]: 33%
TNF [3, 6]: 304 pg/mL
TNF % of control [3, 6]: 42%
TNF [3, 7]: 176 pg/mL
TNF % of control [3, 7]: 24%
TNF ([3]; LPS 20 ng/ml, hBD2 1 μg/ml, Table 1): 1526.9 pg/mL
TNF ([3]; LPS 20 ng/ml, hBD2 1 μg/ml, Table 11): 6240 pg/mL
TNF ([3]; LPS 20 ng/ml, hBD2 10 μg/ml, Table 1): 1306.6 pg/mL
TNF ([3]; LPS 20 ng/ml, hBD2 10 μg/ml, Table 11): 350 pg/mL
TNF ([3]; LPS 20 ng/ml, hBD2 100 μg/ml, Table 1): 1733.9 pg/mL
TNF ([3]; LPS 20 ng/ml, hBD2 100 μg/ml, Table 11): 38 pg/mL
TNF ([3]; LPS 20 ng/ml, hBD2 1000 μg/ml, Table 11): 0 pg/mL
TNF [3, 8]: 411 pg/mL
TNF % of control [3, 8]: 19%
TNF [3, 9]: 132 pg/mL
TNF % of control [3, 9]: 6%
TNF [3, 10]: 52 pg/mL
TNF % of control [3, 10]: 2%
TNF ([3]; LPS 20 ng/ml, treatment 1 μg/ml, Table 21): 633 pg/mL
TNF ([3]; LPS 20 ng/ml, treatment 10 μg/ml, Table 21): 359 pg/mL
TNF ([3]; LPS 20 ng/ml, treatment 100 μg/ml, Table 21): 342 pg/mL
TNF ([3]; LTA 1.25 μg/ml, hBD2 1 μg/ml, Table 1): 711.5 pg/mL
TNF ([3]; LTA 1.25 μg/ml, hBD2 1 μg/ml, Table 11): 3900 pg/mL
TNF ([3]; LTA 1.25 μg/ml, hBD2 10 μg/ml, Table 1): 494.7 pg/mL
TNF ([3]; LTA 1.25 μg/ml, hBD2 10 μg/ml, Table 11): 2330 pg/mL
TNF ([3]; LTA 1.25 μg/ml, hBD2 100 μg/ml, Table 1): 375.2 pg/mL
TNF ([3]; LTA 1.25 μg/ml, hBD2 100 μg/ml, Table 11): 1150 pg/mL
TNF ([3]; LTA 1.25 μg/ml, hBD2 1000 μg/ml, Table 11): 110 pg/mL
TNF ([3]; Medium, hBD2 1 μg/ml, Table 1): 4.2 pg/mL
TNF ([3]; Medium, hBD2 1 μg/ml, Table 9): 3.4 pg/mL
TNF ([3]; Medium, hBD2 1 μg/ml, Table 11): 0 pg/mL
TNF ([3]; Medium, hBD2 10 μg/ml, Table 1): 2.6 pg/mL
TNF ([3]; Medium, hBD2 10 μg/ml, Table 9): 3.7 pg/mL
TNF ([3]; Medium, hBD2 10 μg/ml, Table 11): 0 pg/mL
TNF ([3]; Medium, hBD2 100 μg/ml, Table 1): 2.9 pg/mL
TNF ([3]; Medium, hBD2 100 μg/ml, Table 9): 3.6 pg/mL
TNF ([3]; Medium, hBD2 100 μg/ml, Table 11): 0 pg/mL
TNF ([3]; Medium, hBD2 1000 μg/ml, Table 11): 0 pg/mL
TNF ([3]; Medium, test compound 1 μg/ml, Table 16): 0 pg/mL
TNF ([3]; Medium, test compound 10 μg/ml, Table 16): 0 pg/mL
TNF ([3]; Medium, test compound 40 μg/ml, Table 16): 0 pg/mL
TNF ([3]; Medium, treatment 1 μg/ml, Table 21): 3 pg/mL
TNF ([3]; Medium, treatment 10 μg/ml, Table 21): 2 pg/mL
TNF ([3]; Medium, treatment 100 μg/ml, Table 21): 2 pg/mL
TNF ([3]; PBMC stimulated with Pam3CSK4 (TLR2-TLR1 ligand), results not shown): able to downregulate TNF
TNF ([3]; PGN 40 μg/ml, hBD2 1 μg/ml, Table 9): 809.9 pg/mL
TNF ([3]; PGN 40 μg/ml, hBD2 10 μg/ml, Table 9): 362.0 pg/mL
TNF ([3]; PGN 40 μg/ml, hBD2 100 μg/ml, Table 9): 274.9 pg/mL
TNF ([4]; LPS 1.5 μg/ml, hBD2 1 μg/ml): 6.61 pg/mL
TNF ([4]; LPS 1.5 μg/ml, hBD2 10 μg/ml): 3.93 pg/mL
TNF ([4]; LPS 1.5 μg/ml, hBD2 100 μg/ml): 3.93 pg/mL
TNF ([4]; LTA 1.5 μg/ml, hBD2 1 μg/ml): 1.75 pg/mL
TNF ([4]; LTA 1.5 μg/ml, hBD2 10 μg/ml): 3.76 pg/mL
TNF ([4]; LTA 1.5 μg/ml, hBD2 100 μg/ml): 2.64 pg/mL
TNF ([4]; Medium, hBD2 1 μg/ml): 2.21 pg/mL
TNF ([4]; Medium, hBD2 10 μg/ml): 2.60 pg/mL
TNF ([4]; Medium, hBD2 100 μg/ml): 0.00 pg/mL
